One series concerns HBV genotype D. Briefly: Antiviral activity against HBV genotype D infected in human HepG2.2.15 cells assessed as reduction in viral DNA level after 7 days by RT-PCR assay. The class given is functional, organism-based. As to conditions: Hepatitis B virus, HepG2.2.15, 168 h.
Series [1] can be described thus: Cytotoxicity against human MT2 cells after 7 days by MTT assay. The class given is cell-based. In general terms: Tetrazolium assays rely on reduction of a dye to a coloured formazan, in cell work by metabolically active cells.
A short description of series [2]: Cytotoxicity against human HepG2.2.15 cells after 7 days by MTT assay. It is filed as cell-based, HepG2 2.2.15.
For series [3], the system named is Human immunodeficiency virus 1. In words: Antiviral activity against HIV-1 3B infected in human MT2 cells assessed as inhibition of virus-induced cytopathic effect after 7 days by MTT assay. The class given is functional, organism-based. As to conditions: Human immunodeficiency virus 1, 3B, MT2, 168 h.
A short description of series [4]: Selectivity index, ratio of CC50 for cytotoxicity against human HepG2.2.15 cells to EC50 for HBV genotype D infected in human HepG2.2.15 cells. The class given is toxicity, cell-based. As to conditions: read-out: Ratio CC50/EC50.

Bounds are passed on as bounds.

As a reminder, the EC50 is the concentration that produces a half-maximal response. Broadly, the CC50 is the concentration at which the toxic effect on the cells reaches its halfway point. In the case of `Nc1ncnc2c1ncn2[C@H]1C=C(Br)[C@H](CO)[C@H]1CO`, the EC50 with HBV genotype D was 0.029 µM; in series [3] it was above 100 µM. The 50% cytotoxic concentration (CC50) at 168 h in series [1] and in series [2] was above 100 µM throughout.

As for `Nc1ncnc2c1ncn2[C@@H]1C=C[C@H](CO)[C@H]1CO`, the concentration giving a half-maximal response (EC50) was found to be 0.0457 µM in the series with HBV genotype D and 0.77 µM in series [3]. Moreover, the CC50 at 168 h in series [1] is 153 µM; in series [2], above 100 µM.

Consider `Nc1ncnc2c1ncn2[C@H]1C=C(Cl)[C@H](CO)[C@H]1CO`, for which the concentration for a half-maximal effect (EC50) in the series on HBV genotype D was 0.146 µM; in series [3] it was above 100 µM. Further, the cytotoxic concentration (CC50) at 168 h in series [1] was above 100 µM.

Turning to `Nc1ncnc2c1ncn2[C@H]1C=C(F)[C@H](CO)[C@H]1CO`, the results for the EC50 (in the series on HBV genotype D; in series [3]) were 0.019 µM and above 100 µM, respectively. In addition, the cytotoxic concentration (CC50) at 168 h in series [1] and in series [2] was above 100 µM throughout. For the same molecule, the selectivity ratio in series [4] was 5260.

As for `Nc1ncnc2c1ncn2[C@H]1C=C(I)[C@H](CO)[C@H]1CO`, the results for the EC50 (with HBV genotype D; in series [3]) were 0.436 µM and above 100 µM, respectively. This molecule also returned a CC50 at 168 h in series [1] above 100 µM.

Consider `C=C1[C@H](CO)[C@@H](O)C[C@@H]1n1cnc2c(=O)[nH]c(N)nc21` [ENTECAVIR], for which the EC50 in the series on HBV genotype D was found to be 0.0038 µM. The molecule also came in with a 50% cytotoxic concentration (CC50) at 168 h in series [2] of 52.9 µM.

The values above are taken from ChEMBL document CHEMBL4325927, “Synthesis, Anti-HBV, and Anti-HIV Activities of 3'-Halogenated Bis(hydroxymethyl)-cyclopentenyladenines” (ACS Med Chem Lett, 2018).
